Assay results taken from patent US8952169B2 (Genentech, Inc., priority 2012, dated 2015).

Tests used:
hNav1.7 [1] = molecular target: T1, hNav1.7 (Homo sapiens (Human), UniProt Q15858); assay: Patch voltage clamp electrophysiology (PatchXpress), HEK-293 cells, inactivated state block; format: cell-based; settings: HEK-293 cells, β1 coexpressed; inactivated state, holding −60 mV; read-out: EP_PX 293 hNav1.7 (IC50)
hNav1.7 [2] = molecular target: T1, hNav1.7; assay: Tritiated aryl sulfonamide binding to membranes from cells expressing hNav1.7 and the β1 subunit (competitive binding); settings: membranes with hNav1.7 and β1 subunit; [3H]compound displacement, 18 h, room temperature; read-out: NaV1.7 395 Memb Binding (IC50)
Method in brief: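 Competitive displacement of 100 μM [3H]-labelled tritiated aryl sulfonamide from hNav1.7/β1 membranes, 18 h at room temperature in 100 mM NaCl, 20 mM Tris HCl pH 7.4. Non-specific binding defined with 1 μM unlabelled compound. Filter-bound radioactivity measured by liquid scintillation counting.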

T1 sequence (Q15858 whole entry, looked up): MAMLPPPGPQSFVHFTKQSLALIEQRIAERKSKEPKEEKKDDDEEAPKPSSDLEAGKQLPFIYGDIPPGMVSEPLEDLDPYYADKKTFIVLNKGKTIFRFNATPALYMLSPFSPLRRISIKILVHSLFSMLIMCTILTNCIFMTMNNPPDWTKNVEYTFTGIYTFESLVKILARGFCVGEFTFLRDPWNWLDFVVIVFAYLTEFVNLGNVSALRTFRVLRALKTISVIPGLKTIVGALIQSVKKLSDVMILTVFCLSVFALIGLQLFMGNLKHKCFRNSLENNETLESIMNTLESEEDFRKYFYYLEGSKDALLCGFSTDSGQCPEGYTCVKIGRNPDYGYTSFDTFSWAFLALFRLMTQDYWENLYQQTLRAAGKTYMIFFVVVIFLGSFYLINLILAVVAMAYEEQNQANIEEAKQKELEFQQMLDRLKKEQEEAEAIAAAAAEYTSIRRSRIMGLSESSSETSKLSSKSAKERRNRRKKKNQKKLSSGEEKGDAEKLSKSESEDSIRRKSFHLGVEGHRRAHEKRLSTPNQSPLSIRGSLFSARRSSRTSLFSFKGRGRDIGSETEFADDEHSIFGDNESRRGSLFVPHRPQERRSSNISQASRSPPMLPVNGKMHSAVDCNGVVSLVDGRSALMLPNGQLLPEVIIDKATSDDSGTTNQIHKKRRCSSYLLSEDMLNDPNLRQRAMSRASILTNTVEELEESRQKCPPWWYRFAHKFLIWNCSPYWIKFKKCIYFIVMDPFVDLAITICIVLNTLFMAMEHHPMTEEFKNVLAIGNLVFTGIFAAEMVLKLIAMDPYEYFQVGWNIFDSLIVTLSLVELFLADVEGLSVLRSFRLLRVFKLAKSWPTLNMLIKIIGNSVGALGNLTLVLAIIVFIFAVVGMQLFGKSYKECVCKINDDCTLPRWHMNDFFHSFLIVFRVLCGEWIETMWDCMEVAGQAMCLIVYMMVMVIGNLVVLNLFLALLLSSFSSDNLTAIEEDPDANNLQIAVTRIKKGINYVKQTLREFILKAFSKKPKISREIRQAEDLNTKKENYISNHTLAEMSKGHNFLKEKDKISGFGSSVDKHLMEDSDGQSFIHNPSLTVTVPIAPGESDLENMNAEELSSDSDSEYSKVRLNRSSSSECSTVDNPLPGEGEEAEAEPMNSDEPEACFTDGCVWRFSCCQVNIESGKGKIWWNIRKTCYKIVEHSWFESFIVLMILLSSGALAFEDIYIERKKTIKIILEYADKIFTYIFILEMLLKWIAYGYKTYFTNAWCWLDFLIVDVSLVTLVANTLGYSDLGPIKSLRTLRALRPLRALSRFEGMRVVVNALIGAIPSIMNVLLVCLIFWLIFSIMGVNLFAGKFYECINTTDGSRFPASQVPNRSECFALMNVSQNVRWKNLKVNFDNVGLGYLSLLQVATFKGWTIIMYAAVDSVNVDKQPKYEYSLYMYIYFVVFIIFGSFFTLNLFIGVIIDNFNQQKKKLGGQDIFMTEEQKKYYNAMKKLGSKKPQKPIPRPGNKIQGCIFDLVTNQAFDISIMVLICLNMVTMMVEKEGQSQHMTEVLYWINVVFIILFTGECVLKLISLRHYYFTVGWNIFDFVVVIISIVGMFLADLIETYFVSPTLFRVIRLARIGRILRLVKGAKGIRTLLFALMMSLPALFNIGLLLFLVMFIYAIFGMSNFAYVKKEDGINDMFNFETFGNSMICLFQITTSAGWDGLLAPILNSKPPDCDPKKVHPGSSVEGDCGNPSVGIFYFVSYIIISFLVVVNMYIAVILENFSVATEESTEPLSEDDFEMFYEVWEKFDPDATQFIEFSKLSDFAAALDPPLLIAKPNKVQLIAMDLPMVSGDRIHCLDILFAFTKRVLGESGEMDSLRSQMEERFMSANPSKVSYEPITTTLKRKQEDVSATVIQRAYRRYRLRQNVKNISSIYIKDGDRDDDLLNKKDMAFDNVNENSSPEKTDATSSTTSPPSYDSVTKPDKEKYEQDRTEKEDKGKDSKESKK
T1 sequence (Q07699 whole entry partner, looked up): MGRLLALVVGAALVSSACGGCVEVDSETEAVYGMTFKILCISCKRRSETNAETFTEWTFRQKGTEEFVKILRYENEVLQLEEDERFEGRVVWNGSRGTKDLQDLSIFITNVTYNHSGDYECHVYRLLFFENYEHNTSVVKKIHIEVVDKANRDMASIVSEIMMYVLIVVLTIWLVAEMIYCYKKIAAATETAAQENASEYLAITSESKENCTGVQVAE

SMILES	IC50 (hNav1.7 [1]) [nM]	IC50 (hNav1.7 [2]) [nM]
CS(=O)(=O)NC(=O)c1cc(Cl)c(OCC23CC4CC(CC(O)(C4)C2)C3)cc1F	2250	10000
O=C(NS(=O)(=O)N1CCC1)c1cc(C2CC2)c(OC2C3CC4CC(C3)CC2C4)cc1F (centres unmarked)	56	10
O=C(NS(=O)(=O)N1CCC1)c1cc(C2CC2)c(OC2CCC(F)(F)CC2)cc1F	270	110
O=C(NS(=O)(=O)C1CC1)c1cc(C2CC2)c(OC2CCC(F)(F)CC2)cc1F	140	43
O=C(NS(=O)(=O)N1CCC1)c1cc(Cl)c(OC2CCC(F)(F)CC2)cc1F	4400	980
CC1(F)CCC(COc2cc(F)c(C(=O)NS(=O)(=O)N3CCC3)cc2Cl)CC1 (centres unmarked)	280	270
CS(=O)(=O)NC(=O)c1cc(C2CC2)c(OC2CCC3(CC2)CC3)cc1F	18	21
O=C(NS(=O)(=O)N1CCC1)c1cc(C2CC2)c(OC2CCC3(CC2)CC3)cc1F	29	23
CS(=O)(=O)NC(=O)c1cc(C2CC2)c(OCC2CCC3C(C2)C3(F)F)cc1F (centres unmarked)	19	21
O=C(NS(=O)(=O)C1CC1)c1cc(C2CC2)c(OCC2CCC3C(C2)C3(F)F)cc1F (centres unmarked)	9	8
O=C(NS(=O)(=O)N1CCC1)c1cc(C2CC2)c(OCC2CCC3C(C2)C3(F)F)cc1F (centres unmarked)	34	15
COC12CC3CC(C1)C(Oc1cc(F)c(C(=O)NS(C)(=O)=O)cc1Cl)C(C3)C2 (centres unmarked)	610	730
O=C(NS(=O)(=O)C1CC1)c1cc(C2CC2)c(O[C@H]2C3CC4CC2C[C@@](Cl)(C4)C3)cc1F	24	4
O=C(NS(=O)(=O)N1CCC1)c1cc(C2CC2)c(OC2CCC(Cl)(Cl)CC2)cc1F	120	44
CS(=O)(=O)NC(=O)c1cc(C2CC2)c(OC2CCC3(CCCCC3)CC2)cc1F	120	7
O=C(NS(=O)(=O)C1CC1)c1cc(C2CC2)c(OC2CCC3(CCCCC3)CC2)cc1F	61	4
CC1(C)CCCC(Oc2cc(F)c(C(=O)NS(=O)(=O)C3CC3)cc2C2CC2)C1 (centres unmarked)	53	6

SMILES	IC50 (hNav1.7 [1]) [nM]	IC50 (hNav1.7 [2]) [nM]
O=C(NS(=O)(=O)N1CCC1)c1cc(C2CC2)c(OC2CCC3(CCCCC3)CC2)cc1F	220	6.3
CC1(F)CCC(COc2cc(F)c(C(=O)NS(=O)(=O)N3CCC3)cc2C2CC2)CC1 (centres unmarked) [listing 1 of 2 here]	67	23
O=C(NS(=O)(=O)N1CCC1)c1cc(C2CC2)c(OCC2CCC3(CCC3)CC2)cc1F	300	4
O=C(NS(=O)(=O)N1CCC1)c1cc(C2CC2)c(O[C@H]2C3CC4CC2C[C@@](F)(C4)C3)cc1F	24	21
O=C(NS(=O)(=O)N1CCC1)c1cc(C2CC2)c(O[C@H]2C3CC4CC2C[C@@](Cl)(C4)C3)cc1F	94	10
CS(=O)(=O)NC(=O)c1cc(Cl)c(OCC2CC=CCC2)cc1F (centres unmarked)	1300	130
CS(=O)(=O)NC(=O)c1cc(C2CC2)c(O[C@H]2C3CC4CC2C[C@@](Cl)(C4)C3)cc1F	7	9
O=C(NS(=O)(=O)N1CCC1)c1cc(C2CC2(F)F)c(OCC23CC4CC(CC(C4)C2)C3)cc1F (centres unmarked)	340	5
O=C(NS(=O)(=O)C1CC1)c1cc(C2CC2(F)F)c(OCC23CC4CC(CC(C4)C2)C3)cc1F (centres unmarked)	140	4
CC1(F)CCC(COc2cc(F)c(C(=O)NS(=O)(=O)N3CCC3)cc2C2CC2)CC1 (centres unmarked) [listing 2 of 2 here]	35	22
CNS(=O)(=O)NC(=O)c1cc(C2CC2)c(OCC2CN(C(c3ccccc3)c3ccccc3)C2)cc1F	600	34
O=C(NS(=O)(=O)N1CC(F)C1)c1cc(C2CC2)c(O[C@H]2C3CC4CC2C[C@](Cl)(C4)C3)cc1F	1200	20
CS(=O)(=O)NC(=O)c1cc(C2CC2)c(OCC2CCC3CC3C2)cc1F (centres unmarked)	2	9
O=C(NS(=O)(=O)N1CC(F)C1)c1cc(C2CC2)c(O[C@H]2C3CC4CC2C[C@@](Cl)(C4)C3)cc1F	890	28
O=C(NS(=O)(=O)N1CC(F)C1)c1cc(C2CC2)c(OCC2CCC3CC3C2)cc1F (centres unmarked)	520	11
CC1CCCC(C)C1COc1cc(F)c(C(=O)NS(=O)(=O)N2CCC2)cc1C1CC1 (centres unmarked)	390	60
CC1CCCC(C)C1COc1cc(F)c(C(=O)NS(=O)(=O)N2CCC2)cc1Cl (centres unmarked)	74	25
